For experiment [1], the target named is Recombinant human EIF2AK3 (PERK) catalytic domain (amino acids 536-1116) (Homo sapiens (Human), UniProt Q9NZJ5). The experiment in a line: PERK In Vitro Activity Assay (isolated), TR-FRET kinase assay. Conditions: isolated PERK enzyme, 1.5 μM ATP, read-out: Biochemical IC50. The essentials:
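IC50 values come from 4-parameter logistic fits of TR-FRET ratios, read after 90 min with 2 nM terbium-labelled phospho-eIF2a antibody following an EDTA stop (10 mM final). The kinase reaction ran 45 min at room temperature, started by adding PERK catalytic domain to 100–200 nM GFP-eIF2a in HEPES pH 7.5 buffer with MgCl2, EGTA and Brij-35.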

Experiment [2] has as its system eIF2α in HEK293-EGFP-eIF2α cells. The experiment in a line: PERK Cellular Assay (HEK293-EGFP-eIF2α cells, tunicamycin-induced ER stress, TR-FRET). The experiment is classed as cell-based. Particulars: tunicamycin 2 hours. The essentials:
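After 2 h tunicamycin ([…]) stress following 30 min compound pretreatment at 37 °C, lysed HEK293-EGFP-eIF2α cells were read by TR-FRET. IC50 derived by 4-parameter logistic fitting of percent inhibition, DMSO-normalized, from 10-point 3-fold dilutions.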
For orientation: Time-resolved FRET reads energy transfer from a long-lived donor to a nearby acceptor.

Recombinant human EIF2AK3 (PERK) catalytic domain (amino acids 536-1116), sequence (Q9NZJ5 536-1116): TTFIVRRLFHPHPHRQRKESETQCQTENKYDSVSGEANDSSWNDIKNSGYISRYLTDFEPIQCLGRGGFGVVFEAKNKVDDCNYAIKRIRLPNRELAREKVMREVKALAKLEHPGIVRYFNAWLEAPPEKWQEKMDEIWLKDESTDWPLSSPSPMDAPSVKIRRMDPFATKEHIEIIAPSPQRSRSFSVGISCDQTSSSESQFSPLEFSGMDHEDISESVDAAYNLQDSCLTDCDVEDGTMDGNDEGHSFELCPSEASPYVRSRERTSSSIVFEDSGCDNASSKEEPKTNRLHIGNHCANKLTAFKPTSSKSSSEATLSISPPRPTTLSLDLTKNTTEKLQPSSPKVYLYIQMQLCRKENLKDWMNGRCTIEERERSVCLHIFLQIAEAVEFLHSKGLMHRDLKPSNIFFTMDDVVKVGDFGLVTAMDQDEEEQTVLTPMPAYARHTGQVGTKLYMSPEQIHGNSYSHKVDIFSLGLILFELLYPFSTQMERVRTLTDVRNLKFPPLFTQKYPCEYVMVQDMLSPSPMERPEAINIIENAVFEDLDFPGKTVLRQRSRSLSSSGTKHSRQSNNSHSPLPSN

For orientation: IC50 means the concentration needed to halve the response being measured. Regarding `[2H]C([2H])([2H])c1nc(-c2ccc(NC(=O)C(O)c3cc(F)cc(F)c3)cc2F)c2c(N)ncc(C)n12` (stereo not drawn) [Example 105, N-[4-[8-amino-5-methyl-3-(trideuteriomethyl)imidazo[1,5-a]pyrazin-1-yl]-3-fluoro-phenyl]-2-(3,5-difluoro-phenyl)-2-hydroxy-acetamide], the IC50 in experiment [1] was 1 to 25 nM; in experiment [2], 26 to 50 nM.

Consider `[2H]C([2H])([2H])c1nc(-c2ccc(NC(=O)C(O)c3cc(F)cc(F)c3)cc2C)c2c(N)nc(C)cn12` (stereo not drawn) [Example 45, N-[4-[8-amino-6-methyl-3-(trideuteriomethyl)imidazo[1,5-a]pyrazin-1-yl]-3-methyl-phenyl]-2-(3,5-difluoro-phenyl)-2-hydroxy-acetamide], for which the results for the IC50 in experiment [1] and in experiment [2] were 51 to 100 nM and 1000 to 2000 nM, respectively.

Consider `[2H]C([2H])([2H])c1nc(-c2ccc(NC(=O)C(O)c3cccc(F)c3)nc2C)c2c(N)nc(C)cn12` (stereo not drawn) [Example 171, N-[5-[8-amino-6-methyl-3-(trideuteriomethyl)imidazo[1,5-a]pyrazin-1-yl]-6-methyl-2-pyridyl]-2-(3-fluorophenyl)-2-hydroxy-acetamide], for which the IC50 in experiment [1] is 1000 to 2000 nM; in experiment [2] it was above 5000 nM.

In the case of `[2H]C([2H])([2H])c1nc(-c2ccc(NC(=O)C(O)c3cccc(C(F)(F)F)c3)cc2F)c2c(N)ncc(C)n12` (stereo not drawn) [Example 95, N-[4-[8-amino-5-methyl-3-(trideuteriomethyl)imidazo[1,5-a]pyrazin-1-yl]-3-fluoro-phenyl]-2-hydroxy-2-[3-(trifluoromethyl)phenyl]acetamide], the IC50 in experiment [1] lay in the range of 1 to 25 nM; in experiment [2] it was 51 to 100 nM.

Take `Cc1cnc(N)c2c(-c3ccc(NC(=O)C(O)c4cccc(F)c4)cc3F)nc(C)n12` (stereo not drawn) [Example 71, N-(4-(8-amino-3,5-dimethylimidazo [1,5-a]pyrazin-1-yl)-3-fluorophenyl)-2-(3-fluorophenyl)-2-hydroxy-acetamide]: the 50% inhibitory concentration (IC50) in experiment [1] was in the range of 1 to 25 nM; in experiment [2], 51 to 100 nM.

For the compound `[2H]C([2H])([2H])c1nc(-c2ccc(NC(=O)C(O)c3cc(F)cc(C(F)(F)F)c3)cc2F)c2c(N)ncc(C)n12` (stereo not drawn) [Example 111, N-[4-[8-amino-5-methyl-3-(trideuteriomethyl)imidazo[1,5-a]pyrazin-1-yl]-3-fluoro-phenyl]-2-[3-fluoro-5-(trifluoromethyl)phenyl]-2-hydroxy-acetamide], the concentration for half-maximal inhibition (IC50) fell in the range of 1 to 25 nM in experiment [1] and 26 to 50 nM in experiment [2].

As for `[2H]C([2H])([2H])c1nc(-c2ccc(NC(=O)C(O)c3cccc(C(F)(F)F)c3)c(F)c2F)c2c(N)ncc(C)n12` (stereo not drawn) [Example 146, N-[4-[8-amino-5-methyl-3-(trideuteriomethyl)imidazo[1,5-a]pyrazin-1-yl]-2,3-difluoro-phenyl]-2-hydroxy-2-[3-(trifluoromethyl)phenyl]acetamide], the IC50 in experiment [1] and in experiment [2] was 1 to 25 nM in each case.

Consider `[2H]C([2H])([2H])c1nc(-c2ccc(NC(=O)C(O)c3cc(F)cc(C(F)(F)F)c3)cc2C)c2c(N)ncc(C(F)(F)F)n12` (stereo not drawn) [Example 61, N-[4-[8-amino-3-(trideuteriomethyl)-5-(trifluoromethyl)imidazo[1,5-a]pyrazin-1-yl]-3-methyl-phenyl]-2-[3-fluoro-5-(trifluoromethyl)phenyl]-2-hydroxy-acetamide], for which the concentration for half-maximal inhibition (IC50) in experiment [1] is 51 to 100 nM; in experiment [2], 251 to 500 nM.

`[2H]C([2H])([2H])c1nc(-c2ccc(NC(=O)C(O)c3cccc(Cl)c3)cc2C)c2c(N)nc(C)cn12` (stereo not drawn) [Example 34, N-[4-[8-amino-6-methyl-3-(trideuteriomethyl)imidazo[1,5-a]pyrazin-1-yl]-3-methyl-phenyl]-2-(3-chlorophenyl)-2-hydroxy-acetamide]: the IC50 in experiment [1] lay within 1 to 25 nM; in experiment [2], 26 to 50 nM.
